One assay concerns Absidia corymbifera. In words: In vitro antifungal activity (MIC) against Absidia corymbifera. The following applies: Lichtheimia corymbifera; strain IFO8084; pH 7.0, 27° C., 10,000 cfu/ml, 0.2% low melting point agarose. It counts as cell-based.
The next assay relates to Trichosporon beigelii. The experiment in a line: In vitro antifungal activity (MIC) against Trichosporon beigelii. In kind it is cell-based. The settings on record: ATCC28592, strain ATCC 28592, pH 7.0, 27° C., 10,000 cfu/ml, 0.2% low melting point agarose.
Assay [1] deals with Trichophyton mentagrophytes. In words: In vitro antifungal activity (MIC) against Trichophyton mentagrophytes. In kind it is cell-based. The following applies: strain CF1007, pH 7.0, 27° C., 10,000 cfu/ml, 0.2% low melting point agarose.
Protocol: (§1) MIC is defined as the minimal concentration of test compound at which no visible growth is detected. Culture media employed for measuring MICs were yeast nitrogen base (Difco) supplemented with 1% of glucose, 0.2% of low melting point agarose and 0.25% of K2 HPO4 (pH 7.0). The low melting point agarose was omitted when antifungal activity against Candida albicans and Cryptococcus neoformans was measured. The culture media were inoculated with fungal cells at the final concentration of 10,000 cfu/ml. Plates were incubated for 1-12 days at 27° C.
Assay [2] relates to Aspergillus fumigatus. The following applies: pH 7.0, 27° C., 10,000 cfu/ml, 0.2% low melting point agarose.
Protocol: as §1
The next assay has as its system Candida albicans. The experiment in a line: microbe, parasite or virus in culture.
The next assay concerns Cryptococcus neoformans. In words: microbe, parasite or virus in culture.
Assay [3] concerns Aspergillus fumigatus. The experiment in a line: microbe, parasite or virus in culture. The settings on record: pH 7.
Protocol: as §1

≈ marks a conversion by molar mass, not a printed value. Read-outs that look alike come from different tables or passages of the source.

Protocol for Absidia corymbifera: as §1
Protocol for Candida albicans: as §1
Protocol for Cryptococcus neoformans: as §1
Protocol for Trichosporon beigelii: as §1

Regarding `OC(Cn1cncn1)(Cn1cncn1)c1ccc(F)cc1F` [FCZ, fluconazole], the MIC in the assay with Absidia corymbifera was more than 200 µg/mL; against Trichosporon beigelii, 0.39 µg/mL (≈ 1.27 µM); in assay [1] it was more than 200 µg/mL; against Aspergillus fumigatus [2] (strain 437) it was more than 200 µg/mL; in the assay on Aspergillus fumigatus [2] (strain CF1004) it was more than 200 µg/mL; in the assay on Candida albicans (ATCC48130, pH 7, strain ATCC48130, pH 7.0, 27° C., 10,000 cfu/ml) it was more than 200 µg/mL. For the same molecule, the MIC was more than 200 µg/mL with Candida albicans (pH 7, strain 652, pH 7.0, 27° C., 10,000 cfu/ml); 200 µg/mL (≈ 653 µM) against Candida albicans (pH 7, strain AD, pH 7.0, 27° C., 10,000 cfu/ml); more than 200 µg/mL in the assay on Candida albicans (pH 7, strain C42, pH 7.0, 27° C., 10,000 cfu/ml); more than 200 µg/mL against Candida albicans (pH 7, strain KB, pH 7.0, 27° C., 10,000 cfu/ml); more than 200 µg/mL against Cryptococcus neoformans (pH 7, strain 422, pH 7.0, 27° C., 10,000 cfu/ml); 12.5 µg/mL (≈ 40.8 µM) with Cryptococcus neoformans (pH 7, strain MTU13001, pH 7.0, 27° C., 10,000 cfu/ml). The same molecule displayed an MIC against Aspergillus fumigatus [3] of more than 200 µg/mL.

Values taken from patent US5641485A, “Caledothricins used in the treatment mycotic diseases” (Hoffmann-La Roche Inc., priority 1994, dated 1997).
